Key:
[1] = Cytotoxicity against mouse peritoneal macrophages after 48 hrs by trypan blue exclusion method; type: cell-based, Peritoneal macrophage cell
Plasmodium falciparum [2] = assay: Antiplasmodial activity against chloroquine-resistant Plasmodium falciparum FCR-3 infected in human erythrocytes assessed as inhibition of [3H]hypoxanthine uptake after 48 hrs; type: functional, organism-based
[3] = Selectivity index, ratio of CC50 for mouse peritoneal macrophages to IC50 for axenic amastigotes of Leishmania amazonensis; type: functional
Plasmodium falciparum [4] = assay: Ratio of chloroquine IC50 to compound IC50 for chloroquine-resistant Plasmodium falciparum FCR-3 infected in human erythrocytes; type: functional
Leishmania amazonensis [5] = assay: Ratio of amphotericin B IC50 to compound IC50 for axenic amastigotes of Leishmania amazonensis; type: functional
Leishmania amazonensis [6] = assay: Leishmanicidal activity against axenic amastigotes of Leishmania amazonensis by MTT assay; type: functional, organism-based

| Compound | CC50 at 48 h [1] [µM] | IC50 (Plasmodium falciparum [2]) [µM] | Ratio CC50/IC50 [3] | Ratio IC50 (Plasmodium falciparum [4]) | Ratio IC50 (Leishmania amazonensis [5]) | IC50 (Leishmania amazonensis [6]) [µM] |
| --- | --- | --- | --- | --- | --- | --- |
| N#Cc1c(NS(=O)(=O)c2ccc3ccccc3c2)[n+]([O-])c2ccc(Cl)cc2[n+]1[O-] | 88.6 | > 23.4 | 4.4 | >78 | 100 | 20 |
| CC(=O)Oc1ccccc1C(=O)Nc1c(C#N)[n+]([O-])c2cc(C)ccc2[n+]1[O-] | 21.7 | 52.8 | 1.1 | 176 | 94 | 18.8 |
| CC(=O)Oc1ccccc1C(=O)Nc1c(C#N)[n+]([O-])c2cc(F)c(F)cc2[n+]1[O-] | 10.5 | 36 | 0.7 | 120 | 74 | 14.8 |
| N#Cc1c(NS(=O)(=O)c2ccccc2[N+](=O)[O-])[n+]([O-])c2ccc(Cl)cc2[n+]1[O-] | 6.8 | 17.4 | 2.2 | 58 | 15.5 | 3.1 |
| N#Cc1c(NS(=O)(=O)c2ccc([N+](=O)[O-])cc2)[n+]([O-])c2cc(Cl)c(Cl)cc2[n+]1[O-] | 89.1 | 18.7 | 5.6 | 62 | 79.5 | 15.9 |
| CC(=O)Oc1ccccc1C(=O)Nc1c(C#N)[n+]([O-])c2ccccc2[n+]1[O-] | – | 41.4 | – | 138 | 559 | 112 |
| Cc1ccc2c(c1)[n+]([O-])c(C#N)c(NS(=O)(=O)c1ccc3ccccc3c1)[n+]2[O-] | > 246 | > 24.6 | >15.1 | >82 | 81.5 | 16.3 |
| CC(=O)Oc1ccccc1C(=O)Nc1c(C#N)[n+]([O-])c2cc(F)ccc2[n+]1[O-] | 13.6 | 7.4 | 1.8 | 25 | 36.5 | 7.3 |
| N#Cc1c(NS(=O)(=O)c2ccc([N+](=O)[O-])cc2)[n+]([O-])c2ccc(Cl)cc2[n+]1[O-] | 7.9 | > 23.7 | 3.8 | >79 | 10.5 | 2.1 |
| C[C@@H]1[C@H](O)[C@@H](C)/C=C/C=C/C=C/C=C/C=C/C=C/C=C/[C@H](O[C@@H]2O[C@H](C)[C@@H](O)[C@H](N)[C@@H]2O)C[C@@H]2O[C@](O)(C[C@@H](O)C[C@@H](O)[C@H](O)CC[C@@H](O)C[C@@H](O)CC(=O)O[C@H]1C)C[C@H](O)[C@H]2C(=O)O [AMPHOTERICIN B] | 4.4 | – | – | – | 1 | – |
| CCN(CC)CCCC(C)Nc1ccnc2cc(Cl)ccc12 (stereo not drawn) [CHLOROQUINE] | 88.6 | – | – | – | – | 20 |
| CC(=O)Oc1ccccc1C(=O)Nc1c(C#N)[n+]([O-])c2cc(C)c(C)cc2[n+]1[O-] | 12.5 | 59.4 | 0.7 | 198 | 88 | 17.6 |
| CC(=O)Oc1ccccc1C(=O)Nc1c(C#N)[n+]([O-])c2cc(Cl)ccc2[n+]1[O-] | – | 10.8 | – | 36 | 168 | 33.6 |
| N#Cc1c(NS(=O)(=O)c2ccc([N+](=O)[O-])cc2)[n+]([O-])c2ccccc2[n+]1[O-] | – | 20 | – | 67 | 430 | 86.3 |
| COc1ccc2c(c1)[n+]([O-])c(C#N)c(NC(=O)c1ccccc1OC(C)=O)[n+]2[O-] | – | 27 | – | 90 | 212 | 42.4 |
| Cc1cc2c(cc1C)[n+]([O-])c(NS(=O)(=O)c1ccc3ccccc3c1)c(C#N)[n+]2[O-] | – | > 23.8 | – | >79 | >100 | > 100 |
